Our source for the IC50 values is ChEMBL document CHEMBL1124942, “[D-Pen2,D-Pen5]enkephalin analogues with increased affinity and selectivity for delta opioid receptors” (J Med Chem, 1990).

The species entered for one experiment is Cavia porcellus. Put plainly: Inhibitory potency was evaluated using strips of guinea pig ileum (GPI) longitudinal muscle-myenteric plexus. The experiment is classed as functional, organism-based.
For a further experiment, the species on record is Mus musculus. Put plainly: Inhibitory potency was evaluated using electrically induced smooth muscle contractions of mouse vas deferens (MVD). It counts as functional, organism-based.

Structures are written as SMILES.

As a reminder, the IC50 is the point on the concentration scale where inhibition reaches its midpoint. A high value points to weaker potency in that assay. Take `CC1(C)SSC(C)(C)[C@@H](NC(=O)[C@@H](N)Cc2ccc(O)cc2)C(=O)NCC(=O)N[C@@H](Cc2ccc(F)cc2)C(=O)N[C@H]1C(=O)O`: the IC50 worked out at 5030 nM in the experiment listed under Cavia porcellus and 0.84 nM in the experiment listed under Mus musculus.

For the compound `CC1(C)SSC(C)(C)[C@@H](NC(=O)[C@@H](N)Cc2ccc(O)cc2)C(=O)NCC(=O)N[C@@H](Cc2ccc(I)cc2)C(=O)N[C@H]1C(=O)O`, the IC50 in the experiment listed under Cavia porcellus is 46100 nM; in the experiment filed under Mus musculus, 2.65 nM.

As for `CC1(C)SSC(C)(C)[C@@H](NC(=O)[C@@H](N)Cc2ccc(O)cc2)C(=O)NCC(=O)N[C@@H](Cc2ccc(Br)cc2)C(=O)N[C@H]1C(=O)O`, the IC50 in the experiment listed under Cavia porcellus was determined as 13400 nM; in the experiment filed under Mus musculus it was 1.5 nM.

Take `CC1(C)SSC(C)(C)[C@@H](NC(=O)[C@@H](N)Cc2ccc(O)cc2)C(=O)NCC(=O)N[C@@H](Cc2ccc(Cl)cc2)C(=O)N[C@H]1C(=O)O`: the IC50 turned out to be 4830 nM in the experiment listed under Cavia porcellus and 0.89 nM in the experiment listed under Mus musculus.
